In US4778800A, “3-oxadiazole and 3-carboxylic acid beta-carboline derivatives, and their use as psychotropic agents” (Schering Aktiengesellschaft, priority 1985, dated 1988):
Values after ≈ are worked out from the molar mass of the structure shown.

Legend:
benzodiazepine receptors = assay: displacement of 3H-flunitrazepam from benzodiazepine receptors in vitro; assay type: binding; conditions: 3H-flunitrazepam 1.0 nM, 0° C., rat forebrain membranes, pH 7.1
[1] = anticonvulsive action: stopping of spasms induced by pentylenetetrazole (pentazol); assay type: in vivo; conditions: Mus musculus, ip, 0.5 h; mice, i.p., pentazol 150 mg/kg s.c. 15-30 minutes later; protects 50% of animals from spasms and death (Litchfield and Wilcoxon); read-out: PTZ ED50
Experimental: In the pharmacological tests, the compounds according to the invention especially show anxiolytic and anticonvulsive effectiveness. For examination of the anticonvulsive action, stopping of spasms induced by pentylenetetrazole (pentazol) was examined. Pentazol is administered subcutaneously in an amount of 150 mg/kg as a hydrochloric acid solution (pH 2-3) 15-30 minutes after the intraperitoneal application of the test substance. This amount induces clonic and tonic spasms which lead to death in untreated animals. The number of mice which show spasms and the number of them that died 30 minutes after pentazol are recorded.
The ED50 values indicated in the table were determined according to the method of Litchfield and Wilcoxon (J. Pharmacol. exp. Ther. 96 (1949) […]) as the amount of antagonistically acting substance which protects 50% of the animals from spasms and death.

benzodiazepine receptor = assay: in vivo displacement of 3H-flunitrazepam binding on the benzodiazepine receptor in live brain; conditions: mice, normally i.p.; 3H-flunitrazepam i.v. after 15 minutes; 50% reduction of specific binding in forebrain

## CCOC(C)c1cccc2[nH]c3cnc(-c4nc(CC)no4)c(C)c3c12 (stereo not drawn) [5-CH(CH3)OC2 H5, CH3, drawing 6, 3-[5-(3-ethyl-1,2,4-oxadiazol)yl]-4-methyl-5-(1-ethoxyethyl)-beta-carboline]
Benzodiazepine receptors
  IC50 in vitro: 0.3 ng/mL (≈ 0.856 nM)
[1]
  ED50: 0.4 mg/kg
Benzodiazepine receptor
  ED50 in vivo: 0.09 mg/kg

## CCOC(C)c1ccc2[nH]c3cnc(-c4nc(CC)no4)c(CC)c3c2c1 (stereo not drawn) [6-CH(CH3)OC2 H5, C2 H5, drawing 9, 3-[5-(3-ethyl-1,2,4-oxadiazol)yl]-4-ethyl-6-(1-ethoxyethyl)-beta-carboline]
Benzodiazepine receptors
  IC50 in vitro: 0.7 ng/mL (≈ 1.92 nM)
[1]
  ED50: 2.3 mg/kg
Benzodiazepine receptor
  ED50 in vivo: 1.1 mg/kg

## CCOC(CC)c1cccc2[nH]c3cnc(-c4nc(CC)no4)c(C)c3c12 (stereo not drawn) [5-CH(C2 H5)OC2 H5, CH3, drawing 7, 3-[5-(3-ethyl-1,2,4-oxadiazol)yl]-4-methyl-5-(1-ethoxopropyl)-beta-carboline]
Benzodiazepine receptors
  IC50 in vitro: 0.4 ng/mL (≈ 1.1 nM)
[1]
  ED50: 0.6 mg/kg
Benzodiazepine receptor
  ED50 in vivo: 3 mg/kg

## CCOC(CC)c1cccc2[nH]c3cnc(-c4nc(CC)no4)c(COC)c3c12 (stereo not drawn) [5-CH(C2 H5)OC2 H5, CH2 OCH3, drawing 8]
Benzodiazepine receptors
  IC50 in vitro: 0.2 ng/mL (≈ 0.507 nM)
[1]
  ED50: 0.3 mg/kg
Benzodiazepine receptor
  ED50 in vivo: 3 mg/kg

## CCCOC(C)c1cccc2[nH]c3cnc(C(=O)OC(C)C)c(C)c3c12 (stereo not drawn) [5-CH(CH3)OC3 H7, CH3, drawing 5]
Benzodiazepine receptors
  IC50 in vitro: 0.75 ng/mL (≈ 2.12 nM)
[1]
  ED50: 0.8 mg/kg
Benzodiazepine receptor
  ED50 in vivo: 1.8 mg/kg

## CCOCc1cccc2[nH]c3cnc(C(=O)OCC)c(C)c3c12 [5-CH2 OC2 H5, CH3, COOC2 H5, reference compound]
Benzodiazepine receptors
  IC50 in vitro: 0.8 ng/mL (≈ 2.56 nM)
[1]
  ED50: > 100 mg/kg
Benzodiazepine receptor
  ED50 in vivo: 1.0 mg/kg

## CCCOC(C)c1cccc2[nH]c3cnc(C(=O)OCC)c(C)c3c12 (stereo not drawn) [5-CH(CH3)OC3 H7, CH3, COOC2 H5, 5-(1-propoxyethyl)-4-methyl-beta-carboline-3-carboxylic acid ethyl ester]
Benzodiazepine receptors
  IC50 in vitro: 0.4 ng/mL (≈ 1.18 nM)
[1]
  ED50: 1 mg/kg
Benzodiazepine receptor
  ED50 in vivo: 0.6 mg/kg

## CCOC(=O)c1ncc2[nH]c3cccc(COC)c3c2c1C [5-CH2 OCH3, CH3, COOC2 H5, reference compound]
Benzodiazepine receptors
  IC50 in vitro: 0.45 ng/mL (≈ 1.51 nM)
[1]
  ED50: > 100 mg/kg
Benzodiazepine receptor
  ED50 in vivo: 2.0 mg/kg

## CCOC(=O)c1ncc2[nH]c3ccc(C(C)OCC(F)(F)F)cc3c2c1C (stereo not drawn) [6-CH(CH3)OCH2 CF3, CH3, COOC2 H5, 4-methyl-6-(1-(2,2,2-trifluoroethoxy)-ethyl)-beta-carboline-3-carboxylic acid ethyl ester]
Benzodiazepine receptors
  IC50 in vitro: 0.8 ng/mL (≈ 2.1 nM)
[1]
  ED50: 2.4 mg/kg
Benzodiazepine receptor
  ED50 in vivo: 1.8 mg/kg

## CCOC(=O)c1ncc2[nH]c3ccc(C(C)SCC)cc3c2c1C (stereo not drawn) [6-CH(CH3)SC2 H5, CH3, COOC2 H5, 4-methyl-6-(1-ethylthioethyl)-beta-carboline-3-carboxylic acid ethyl ester]
Benzodiazepine receptors
  IC50 in vitro: 1.2 ng/mL (≈ 3.5 nM)
[1]
  ED50: 4 mg/kg
Benzodiazepine receptor
  ED50 in vivo: 0.43 mg/kg
